How the values were obtained:
V1a = V1a (Homo sapiens, UniProt P37288); test: In-vitro receptor binding assay (3H-arginine-8-vasopressin), V1a
Description: (§1) (A) In-Vitro Binding Assay […] The reaction plates are allowed to sit at room temperature for one hour. The samples are filtered through Unifilter GF/C plates (presoaked in 0.3 polyethyleneimine). The plates are washed 5 times with cold physiological saline containing 0.05% Tween 20. After drying, the bottom of the filter plates are sealed and 0.025 ml of Microscint-20 is added to each filter. The top of the plate is sealed, and the plate is counted. Non-specific binding is determined by the addition of 1.25 μM […]-vasopressin in those wells. % Inh. is calculated as follows: […]

human V2 receptor = human V2 receptor (Homo sapiens, UniProt P30518); test: In-vitro receptor binding assay (3H-arginine-8-vasopressin), V2
Description: as §1

[1] = @ 0.1 μM, read-out: Receptor Binding V1a (% Inh. @ concentration in μM)

Chain of human V2 receptor (P30518 whole entry): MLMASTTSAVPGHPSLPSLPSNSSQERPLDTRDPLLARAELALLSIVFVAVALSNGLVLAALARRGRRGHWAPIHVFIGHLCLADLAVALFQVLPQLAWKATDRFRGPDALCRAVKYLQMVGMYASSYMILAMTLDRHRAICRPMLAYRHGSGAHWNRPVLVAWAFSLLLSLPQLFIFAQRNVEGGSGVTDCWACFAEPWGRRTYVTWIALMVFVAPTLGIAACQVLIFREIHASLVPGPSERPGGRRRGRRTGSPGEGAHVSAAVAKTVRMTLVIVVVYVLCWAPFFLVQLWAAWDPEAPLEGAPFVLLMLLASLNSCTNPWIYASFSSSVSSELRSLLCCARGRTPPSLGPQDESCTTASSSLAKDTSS
Chain of V1a (P37288 whole entry): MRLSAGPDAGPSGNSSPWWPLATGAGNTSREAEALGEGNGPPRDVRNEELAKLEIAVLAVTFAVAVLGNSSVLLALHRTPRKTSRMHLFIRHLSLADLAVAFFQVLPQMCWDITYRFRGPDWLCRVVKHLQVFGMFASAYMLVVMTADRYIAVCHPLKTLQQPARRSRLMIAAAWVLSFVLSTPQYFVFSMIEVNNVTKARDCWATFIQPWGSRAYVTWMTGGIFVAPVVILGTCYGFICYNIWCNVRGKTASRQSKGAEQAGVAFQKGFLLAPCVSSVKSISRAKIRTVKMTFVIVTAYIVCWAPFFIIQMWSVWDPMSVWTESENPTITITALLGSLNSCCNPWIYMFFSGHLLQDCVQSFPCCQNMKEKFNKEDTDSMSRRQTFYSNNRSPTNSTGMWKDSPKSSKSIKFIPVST

IC50 (V1a) [µM] | inhibition at 0.1 µM (V1a; [1]) [%] | other results | Structure (SMILES)
0.024 |  | IC50 (human V2 receptor): 0.57 µM | O=C(Nc1ccc(C(=O)N2CCC3(C=CCCC3)Cc3ccccc32)cc1)c1ccccc1F (single isomer, unassigned) [Compound 108]
0.014 |  | IC50 (human V2 receptor): 0.3 µM | O=C(Nc1ccc(C(=O)N2CCC3(C=CCCC3)Cc3ccccc32)cc1)c1ccccc1F (single isomer, unassigned) [Compound 109]
0.016 |  | IC50 (human V2 receptor): 0.029 µM | O=CC1=CC2(CC1)CCN(C(=O)c1ccc(NC(=O)c3ccccc3-c3ccccc3)cc1)c1ccccc1C2 (centres unmarked) [Compound 2, 4-(2-Phenylbenzoyl-4-aminobenzoyl)-3′-(formyl)-4-aza-[6,4]-spiro-[5,6]-benzoundec-2′-ene]
 |  | Receptor Binding V1a (% Inh. @ concentration in μM) (V1a; @ 0.1 μM): 43% @ 0.1; Receptor Binding V2 (% Inh. @ concentration in μM) (human V2 receptor; @ 0.1 μM): 15% @ 0.1 | O=C(O)C1=CC2(CC1)CCN(C(=O)c1ccc(NC(=O)c3ccccc3F)cc1)c1ccccc1C2 (centres unmarked) [Compound 7, 4-(2-Fluorobenzoyl-4-aminobenzoyl)-3′-(carboxyl)-4-aza-[6,4]-spiro-[5,6]-benzoundec-2′-ene]
0.024 |  | IC50 (human V2 receptor): 0.018 µM | O=C(O)CNC(=O)C1=CC2(CC1)CCN(C(=O)c1ccc(NC(=O)c3ccccc3-c3ccccc3)cc1)c1ccccc1C2 (centres unmarked) [Compound 10]
0.028 |  | IC50 (human V2 receptor): 0.01 µM | Cc1ccc(F)cc1C(=O)Nc1ccc(C(=O)N2CCC3(C=C(C(=O)NCCO)CC3)Cc3ccccc32)c(Cl)c1 (centres unmarked) [Compound 11]
0.013 |  | IC50 (human V2 receptor): 0.018 µM | COC(=O)CNC(=O)C1=CC2(CC1)CCN(C(=O)c1ccc(NC(=O)c3ccccc3-c3ccccc3)cc1)c1ccccc1C2 (centres unmarked) [Compound 12]
0.65 |  |  | O=C(c1ccccc1)N1CCC2(C=CCCC2)Cc2ccccc21 (centres unmarked) [Compound 34]
 |  | Receptor Binding V2 (% Inh. @ concentration in μM) (human V2 receptor; @ 10 μM): 42% @ 10 | O=C(c1ccc(F)cc1)N1CCC2(C=CCCC2)Cc2ccccc21 (centres unmarked) [Compound 44]
 |  | Receptor Binding V2 (% Inh. @ concentration in μM) (human V2 receptor; @ 1 μM): 2% @ 1 | COc1ccc(C(=O)Nc2ccc(C(=O)N3CCC4(C=CCCC4)Cc4ccccc43)cc2)cc1OC (centres unmarked) [Compound 97]
 | 0 |  | COc1cc(-n2ccc(C(=O)O)c2)ccc1C(=O)N1CCC2(C=C(C(=O)NCCN(C)C)CC2)Cc2ccccc21 (centres unmarked) [Compound 200]
 | 3 |  | COC(=O)C1=CC2(CC1)CCN(C(=O)c1cc(OC)c(OC)c(OC)c1)c1ccccc1C2 (centres unmarked) [Compound 203]
 | 0 |  | CCOC(=O)Oc1c(OC)cc(C(=O)N2CCC3(C=C(C(=O)OC)CC3)Cc3ccccc32)cc1OC (centres unmarked) [Compound 204]
0.14 |  |  | CCCCOc1ccc(C(=O)N2CCC3(C=C(C(=O)OC)CC3)Cc3ccccc32)cc1 (centres unmarked) [Compound 205]
 | 9 |  | CCOC(=O)Oc1c(OC)cc(C(=O)N2CCC3(C=CCCC3)Cc3ccccc32)cc1OC (centres unmarked) [Compound 206, 4-(4-Ethoxycarboyloxy-3,5-dimethoxybenzoyl)-4-aza-[6,5]-spiro-[5,6]-benzododec-2′-ene]
 | 48 |  | Cc1ccn(-c2ccc(C(=O)N3CCC4(C=C(C(=O)N5CCN(C)CC5)CC4)Cc4ccccc43)cc2N(C)C)n1 (centres unmarked) [Compound 214]
 | 64 |  | COC(=O)C1=CC2(CC1)CCN(C(=O)c1ccc(-n3ccc(C(C)=O)c3)c(OC)c1)c1ccccc1C2 (centres unmarked) [Compound 215]
 | 6 |  | COc1cc(C(=O)N2CCC3(C=C(C(=O)N4CCN(C)CC4)CC3)Cc3ccccc32)ccc1-n1ccc(C(C)=O)c1 (centres unmarked) [Compound 216]
 | 42 |  | Cc1ccn(-c2ccc(C(=O)N3CCC4(C=C(C(=O)N5CCN(C)CC5)CC4)Cc4ccccc43)cc2)n1 (centres unmarked) [Compound 217]
 |  | inhibition at 0.2 µM (V1a; @ 0.2 μM, read-out: Receptor Binding V1a (% Inh. @ concentration in μM)): 48% | O=C(O)C1=CC2(CC1)CCN(C(=O)c1ccc(NC(=O)c3cc(F)ccc3F)cc1)c1ccccc1C2 (centres unmarked) [Compound 219]
0.013 |  |  | CN(C)CCNC(=O)C1=CC2(CC1)CCN(C(=O)c1ccc(NC(=O)c3cc(F)ccc3F)cc1)c1ccccc1C2 (centres unmarked) [Compound 220]
0.009 |  |  | CN(C)CCCNC(=O)C1=CC2(CC1)CCN(C(=O)c1ccc(NC(=O)c3cc(F)ccc3F)cc1)c1ccccc1C2 (centres unmarked) [Compound 221]

— patent US7691844B2, “Nonpeptide substituted spirobenzoazepines as vasopressin antagonists” (Ortho-McNeil Pharmaceutical, Inc., priority 2000, dated 2010)
